Legend:
[1] = system: MCF7 cells (hormone-dependent); design: method as in PMID 23802716; settings: cited from earlier work
PC3 cell line = system: PC3 cell line; design: method as in PMID 23802716; settings: cited from earlier work
HEK293 cells = system: HEK293 cells; design: method as in PMID 21058726; settings: 24 h cytotoxicity, MTT assay; cited from earlier work
[2] = system: A549 human lung adenocarcinoma epithelial cell line; assay: MTT cytotoxicity test, A549; type: cell-based; settings: 72 h incubation
[3] = MTT cytotoxicity test, Hek293T; type: cell-based; settings: human, 72 h incubation
[4] = system: LNCaP human prostate cancer cell line; assay: MTT cytotoxicity test, LNCaP; type: cell-based; settings: for CC50: Homo sapiens, LNCaP, read-out: CC50, LNCaP
[5] = system: PC3 human prostate cancer cell line; assay: MTT cytotoxicity test, PC3; type: cell-based; settings: Homo sapiens
[6] = system: p53 expression level in p53wt A549 cell line; assay: p53 activation, β-galactosidase reporter construction; settings: high concentrations (>100 μM), 24 h
Description: The β-galactosidase reporter construction equipped with the p53 promotor frame [46] was used to assess the p53 expression level in p53wt A549 cell line. The compounds were tested in the concentration range of 0.5–120 μM with triple dilution steps. The incubation time was 24 h. To take into account the toxic effect of the molecules, the output signal was normalized considering the number of the cells estimated by MTT test with the same incubation tome (24 h). The output was statistically significant if the background signal was exceeded two or more times.

[7] = system: PC3 human prostate adenocarcinoma cells (p53-null); design: method as in PMID 28339198; settings: mitogenesis inhibition, dye assay, WST-8; cited from earlier work
[8] = system: LNCaP cells (androgen-dependent); design: method as in PMID 28339198; settings: mitogenesis inhibition, dye assay, WST-8; cited from earlier work
[9] = system: HCT116^+/+ human colon carcinoma cells; design: method as in PMID 28339198; settings: cited from earlier work
[10] = system: HCT116^−/− human colon carcinoma cells; design: method as in PMID 28339198; settings: cited from earlier work
[11] = system: MCF7 breast cancer cell line; assay: MTT cytotoxicity test, MCF7; type: cell-based; settings: Homo sapiens, 72 h incubation
Description: (§1) MTT test. […] Assays were performed in triplicates.

[12] = MTT cytotoxicity test, VA13; type: cell-based; settings: human, VA13 SV40-transformed normal lung fibroblast cells, 72 h incubation
Description: as §1

[13] = system: HCT116^+/+ human colon cancer cells (p53 positive); assay: MTT cytotoxicity test, HCT116 p53+/+; settings: for CC50: Homo sapiens, HCT-116, read-out: CC50, HCT^+/+; for selectivity S against HCT116^+/+ over HCT116^−/−: ratio of CC50 values of the cell line pair
Excerpt: (§2) The used models included human prostate cancer cell lines LNCaP and PC3, breast cancer cell line (MCF-7), human colon cancer cells (HCT116^+/+, p53 positive, p53^+/+ and HCT116^−/−, p53 negative, p53^−/−), human lung adenocarcinoma epithelial cell line (A549), SV40-transformed normal human lung fibroblast cells (VA13), as well as human embryonic kidney 293 cells (Hek293) stably expressing SV40 large T antigen (Hek293T). The cytotoxicity of the evaluated molecules was properly assessed using a MTT assay based on the modified approach reported by Ferrari and colleagues.
(§3) To further elucidate the dominant mode of action, we used HCT116^+/+ and HCT116^−/− cells by analogy with the paper published by Shangary and colleagues. This isogenic cell line is commonly applied to investigate the p53/MDM2-dependent mode of action.
(§4) MTT test. The MTT assay was carried out according to [35] with few modifications; 3000 Cells (for HEK293T, A549 and MCF7cell lines) or 4000 cells (for VA13 cell line) were seeded in each well of a 96-well plate. […] Assays were performed in triplicates. […] The MTT solution was then discarded and 140 µL of DMSO was added. The plates were swayed on a shaker (60 rpm) to solubilize the formazan. […] The analysis of cytotoxicity and the estimation of IC50 values were carried out with the built-in functions in the GraphPad Prism program (GraphPad Software, Inc., San Diego, CA) P53 activation.

[14] = system: HCT116^−/− human colon cancer cells (p53 negative); assay: MTT cytotoxicity test, HCT116 p53-/-; settings: HCT-116, read-out: CC50, HCT^−/−
Excerpt: as §2, §3, §4

HCT116 cells = system: HCT116 cells; design: method as in PMID 24997575; settings: MTT assay; cited from earlier work

| SMILES | CC50 [2] [µM] | CC50 at 72 h [3] [µM] | CC50 ([4]; MTT test) [µM] | selectivity on LNCaP cells over PC3 cells ([4]; MTT test) | CC50 [5] [µM] | CC50 [11] [µM] | CC50 at 72 h [12] [µM] | CC50 [13] [µM] | CC50 [14] [µM] | melting point [°C] | also measured |
| --- | --- | --- | --- | --- | --- | --- | --- | --- | --- | --- | --- |
| CCOC(=O)C1CSC2(C(=O)N(C)c3ccc(Br)cc32)N1C(=O)C1CCCCC1 (stereo not drawn) [VI] | – | – | – | – | – | – | – | – | – | – | IC50 [1]: 0.04 µM; IC50 (PC3 cell line): 0.41 µM |
| O=C1C2CCC3(C(=O)Nc4ccccc43)C2C(=O)N1Cc1ccc(Cl)cc1 (stereo not drawn) [Compound IV] | – | – | – | – | – | – | – | – | – | – | CC50 (HEK293 cells): 0.44 µM |
| CN1CC2(NC(=O)N(c3ccc(F)c(Cl)c3)C2=O)C2(C1)C(=O)Nc1ccc(Cl)cc12 (stereo not drawn) [Compound 9r, 5″-Chloro-1-(3-chloro-4-fluorophenyl)-1′-methyldispiro[imidazolidine-4,3′-pyrrolidine-4′,3″-indoline]-2,2″,5-trione] | 35.3 ± 17.7 | 15.1 ± 1.2 | 19.6 ± 1.8 | selective | > 50 | – | – | – | – | – | CC50, LNCaP ([4]; MTT test): good activity; p53 activation [6]: 2.1 fold |
| CCN1[C@@H](C(=O)CC23CCC(C(=O)O)(CC2)CC3)[C@H](c2ccc(F)c(Cl)c2)C2(C(=O)Nc3cc(Cl)ccc32)C12CCCCC2 (stereo partly drawn) [II] | – | – | – | – | – | – | – | – | – | – | IC50 [7]: 22 µM; IC50 [8]: 0.018 ± 0.013 µM; selectivity towards p53-positive cells ([9]; HCT116^+/+ vs HCT116^−/−): 80 fold; IC50 [9]: 0.1 µM; IC50 [10]: 8 µM |
| CN1CC2(NC(=S)N(CCCN3CCOCC3)C2=O)C2(C1)C(=O)Nc1ccccc12 (stereo not drawn) [Compound 4u, 1′-Methyl-1-(3-morpholinopropyl)-2-thioxodispiro[imidazolidine-4,3′-pyrrolidine-4′,3″-indoline]-2″,5-dione] | > 100 | > 100 | 3.4 ± 0.6 | selective | 53.6 ± 17.3 | > 100 | > 100 | 20.8 ± 4.8 | > 100 | 216 to 217 | selectivity S against HCT116^+/+ over HCT116^−/− [13]: > 1.8; selectivity index S for LNCaP/PC3 cells ([4]; ratio of CC50 values of the cell line pair): 15.7 |
| Cc1ccc(N2C(=O)C3(CN(C)CC34C(=O)Nc3ccccc34)NC2=S)cc1 (stereo not drawn) [Compound 4i, 1′-Methyl-1-(p-tolyl)-2-thioxodispiro[imidazolidine-4,3′-pyrrolidine-4′,3″-indoline]-2″,5-dione] | > 100 | > 100 | > 100 | – | > 100 | 88.2 ± 32.2 | > 100 | > 100 | > 100 | 155 to 157 | – |
| CN1CC2(NC(=S)N(Cc3ccccc3)C2=O)C2(C1)C(=O)Nc1ccccc12 (stereo not drawn) [Compound 4a, 1′-Methyl-1-benzyl-2-thioxodispiro[imidazolidine-4,3′-pyrrolidine-4′,3″-indoline]-2″,5-dione] | 20.3 ± 3.7 | 9.8 ± 1.6 | 12.5 ± 2.1 | moderate selectivity | 30.1 ± 9.1 | 31.3 ± 6.7 | 16.1 ± 2.5 | 66.2 ± 11.7 | 40.1 ± 19.1 | 189 to 190 | – |
| CC(C)(C)CC1N[C@@H](C(=O)Nc2ccc(C(N)=O)cc2)[C@H](c2ccc(F)c(Cl)c2)C12C(=O)Nc1cc(Cl)ccc12 (stereo partly drawn) [Compound V] | – | – | – | – | – | – | – | – | – | – | IC50 (HCT116 cells): 0.09 µM |
| CN1CC2(NC(=S)N(Cc3cccc(Cl)c3)C2=O)C2(C1)C(=O)Nc1ccc(Cl)cc12 (stereo not drawn) [Compound 4p, 5″-Chloro-1′-methyl-1-(3-chlorobenzyl)-2-thioxodispiro[imidazolidine-4,3′-pyrrolidine-4′,3″-indoline]-2″,5-dione] | 11.3 ± 2.4 | 18.4 ± 1.7 | 4.1 ± 0.1 | – | 2.2 ± 1.4 | 6.6 ± 1 | 12.3 ± 1.6 | 34.2 ± 5.7 | > 100 | 261 to 262 | selectivity S against HCT116^+/+ over HCT116^−/− [13]: > 2.9 |

Reference: paper PMC8703884, “Synthesis and Biological Evaluation of S-, O- and Se-Containing Dispirooxindoles” (Molecules, 2021)
